From ChEMBL document CHEMBL5465560, “Selectivity Literature for EUbOPEN Chemogenomic Library” (2024)

What was measured:
[1] = molecular target: T1, Protein arginine N-methyltransferase 9 (Homo sapiens) (UniProt Q6P2P2); details: at 10 µM
T1 sequence (whole entry): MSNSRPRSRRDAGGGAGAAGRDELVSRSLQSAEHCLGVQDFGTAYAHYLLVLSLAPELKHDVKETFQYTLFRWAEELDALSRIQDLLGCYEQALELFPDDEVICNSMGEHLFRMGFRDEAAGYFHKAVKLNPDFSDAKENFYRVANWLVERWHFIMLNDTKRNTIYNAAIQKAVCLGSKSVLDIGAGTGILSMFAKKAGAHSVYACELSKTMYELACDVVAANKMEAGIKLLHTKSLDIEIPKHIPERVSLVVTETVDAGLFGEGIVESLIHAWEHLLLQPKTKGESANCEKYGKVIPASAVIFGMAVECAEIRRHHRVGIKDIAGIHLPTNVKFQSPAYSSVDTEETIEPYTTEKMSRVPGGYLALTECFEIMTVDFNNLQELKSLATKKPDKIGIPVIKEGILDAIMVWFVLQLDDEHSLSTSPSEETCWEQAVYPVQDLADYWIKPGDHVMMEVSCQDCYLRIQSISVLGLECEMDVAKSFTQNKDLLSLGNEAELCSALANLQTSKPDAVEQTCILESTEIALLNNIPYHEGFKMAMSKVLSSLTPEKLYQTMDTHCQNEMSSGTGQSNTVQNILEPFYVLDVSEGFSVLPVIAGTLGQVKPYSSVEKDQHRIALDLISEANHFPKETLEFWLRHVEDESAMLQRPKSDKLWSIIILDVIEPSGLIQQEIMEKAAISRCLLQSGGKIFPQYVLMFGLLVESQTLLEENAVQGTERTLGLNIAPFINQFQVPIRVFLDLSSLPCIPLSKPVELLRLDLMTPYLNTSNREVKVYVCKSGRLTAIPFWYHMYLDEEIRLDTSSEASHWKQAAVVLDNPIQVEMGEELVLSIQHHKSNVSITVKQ

[2] = molecular target: Mitogen-activated protein kinase 9 (Homo sapiens, UniProt P45984); assay: Selectivity interaction (Kinase panel (Z-LYTE Assay)) EUB0001632a MAPK9; details: at 10 µM
[3] = molecular target: Aurora kinase B (Homo sapiens, UniProt Q96GD4); assay: Selectivity interaction (Kinase panel (Z-LYTE Assay)) EUB0001632a AURKB; details: at 10 µM
[4] = molecular target: Chromatin remodeling regulator CECR2 (Homo sapiens, UniProt Q9BXF3); assay: Selectivity interaction (Bromodomain panel (DSF asssay)) EUB0000270b CECR2
[5] = molecular target: Casein kinase I isoform alpha (Homo sapiens, UniProt P48729); assay: Selectivity interaction (Kinase screening (Upstate/Millipore)) EUB0000604a CSNK1A1
[6] = molecular target: T2, Serine/threonine-protein kinase ULK1 (Homo sapiens) (UniProt O75385); assay: Selectivity interaction (KinomeScan (DiscoverX)) EUB0001049a ULK1; details: at 1 µM
T2 sequence (whole entry): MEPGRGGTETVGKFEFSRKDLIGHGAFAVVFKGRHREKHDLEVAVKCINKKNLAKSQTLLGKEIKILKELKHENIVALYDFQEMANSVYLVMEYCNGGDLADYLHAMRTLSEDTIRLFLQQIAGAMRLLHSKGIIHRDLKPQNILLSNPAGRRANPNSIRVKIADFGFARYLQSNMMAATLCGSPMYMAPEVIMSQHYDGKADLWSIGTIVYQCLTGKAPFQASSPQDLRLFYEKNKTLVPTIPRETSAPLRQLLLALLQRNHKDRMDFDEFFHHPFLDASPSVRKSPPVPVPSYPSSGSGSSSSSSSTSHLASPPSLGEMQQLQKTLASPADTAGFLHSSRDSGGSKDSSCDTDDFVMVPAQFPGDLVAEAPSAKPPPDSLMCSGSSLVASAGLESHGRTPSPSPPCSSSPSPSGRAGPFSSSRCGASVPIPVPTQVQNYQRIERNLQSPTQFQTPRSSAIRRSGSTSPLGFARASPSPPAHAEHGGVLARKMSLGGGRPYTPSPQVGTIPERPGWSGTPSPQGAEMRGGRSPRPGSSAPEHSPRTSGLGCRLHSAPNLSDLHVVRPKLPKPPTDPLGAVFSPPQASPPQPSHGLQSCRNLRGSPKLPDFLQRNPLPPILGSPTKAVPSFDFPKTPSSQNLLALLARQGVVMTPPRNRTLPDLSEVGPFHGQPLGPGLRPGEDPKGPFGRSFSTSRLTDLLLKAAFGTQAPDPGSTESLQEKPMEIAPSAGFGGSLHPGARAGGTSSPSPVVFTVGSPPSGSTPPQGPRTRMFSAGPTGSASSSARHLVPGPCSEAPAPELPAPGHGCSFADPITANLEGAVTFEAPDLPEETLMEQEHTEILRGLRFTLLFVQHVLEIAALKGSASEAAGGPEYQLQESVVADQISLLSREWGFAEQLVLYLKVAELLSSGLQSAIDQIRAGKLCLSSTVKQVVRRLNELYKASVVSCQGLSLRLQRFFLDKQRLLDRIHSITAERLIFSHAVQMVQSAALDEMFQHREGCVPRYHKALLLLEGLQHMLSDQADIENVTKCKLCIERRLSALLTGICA

[7] = molecular target: Dual specificity tyrosine-phosphorylation-regulated kinase 1B (Homo sapiens, UniProt Q9Y463); assay: Selectivity interaction (Enzymatic assay (Eurofins)) EUB0001049a DYRK1B
[8] = molecular target: Activated CDC42 kinase 1 (Homo sapiens, UniProt Q07912)
[9] = molecular target: MAP/microtubule affinity-regulating kinase 3 (Homo sapiens) (UniProt P27448); assay: Selectivity interaction (ProQinase) EUB0000171b MARK3
[10] = molecular target: Serine/threonine-protein kinase SIK3 (Homo sapiens) (UniProt Q9Y2K2); assay: Selectivity interaction (KinomeScan (DiscoverX)) EUB0001619a SIK3; details: at 1 µM
[11] = molecular target: Dual specificity mitogen-activated protein kinase kinase 1 (Homo sapiens, UniProt Q02750); assay: Selectivity interaction (Kinase panel (DSF assay)) EUB0001558a MAP2K1
[12] = molecular target: Ribosomal protein S6 kinase beta-1 (Homo sapiens, UniProt P23443); assay: Selectivity interaction (ActivX KiNativ screen (kinase selectivity in THP-1 cell lysates)) EUB0000639a RPS6KB1; type: subcellular; details: lysate, at 0.04 µM
[13] = molecular target: Serine/threonine-protein kinase 38 (Homo sapiens) (UniProt Q15208); assay: Selectivity interaction (ActivX KiNativ screen (kinase selectivity in THP-1 cell lysates)) EUB0000639a STK38; type: subcellular; details: lysate
[14] = molecular target: STE20-like serine/threonine-protein kinase (Homo sapiens, UniProt Q9H2G2); assay: Selectivity interaction (ActivX KiNativ screen (kinase selectivity in THP-1 cell lysates)) EUB0000639a SLK; type: subcellular; details: lysate, at 1 µM
[15] = molecular target: MAP kinase-activated protein kinase 2 (Homo sapiens, UniProt P49137); details: at 10 µM
Sequence of MAP kinase-activated protein kinase 2 (P49137 whole entry, looked up): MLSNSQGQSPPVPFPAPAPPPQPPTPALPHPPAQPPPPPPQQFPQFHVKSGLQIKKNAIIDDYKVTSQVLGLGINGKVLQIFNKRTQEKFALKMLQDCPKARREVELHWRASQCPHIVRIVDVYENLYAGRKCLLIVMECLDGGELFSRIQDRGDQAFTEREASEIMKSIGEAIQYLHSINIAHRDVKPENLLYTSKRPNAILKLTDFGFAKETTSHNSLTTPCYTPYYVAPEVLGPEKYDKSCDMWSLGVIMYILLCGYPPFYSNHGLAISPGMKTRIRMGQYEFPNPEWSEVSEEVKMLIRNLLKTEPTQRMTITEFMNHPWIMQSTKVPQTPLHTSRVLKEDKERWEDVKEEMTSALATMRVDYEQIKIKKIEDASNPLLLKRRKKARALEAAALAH

Sequence of Serine/threonine-protein kinase 38 (Homo sapiens) (Q15208 2-465 limits assumed): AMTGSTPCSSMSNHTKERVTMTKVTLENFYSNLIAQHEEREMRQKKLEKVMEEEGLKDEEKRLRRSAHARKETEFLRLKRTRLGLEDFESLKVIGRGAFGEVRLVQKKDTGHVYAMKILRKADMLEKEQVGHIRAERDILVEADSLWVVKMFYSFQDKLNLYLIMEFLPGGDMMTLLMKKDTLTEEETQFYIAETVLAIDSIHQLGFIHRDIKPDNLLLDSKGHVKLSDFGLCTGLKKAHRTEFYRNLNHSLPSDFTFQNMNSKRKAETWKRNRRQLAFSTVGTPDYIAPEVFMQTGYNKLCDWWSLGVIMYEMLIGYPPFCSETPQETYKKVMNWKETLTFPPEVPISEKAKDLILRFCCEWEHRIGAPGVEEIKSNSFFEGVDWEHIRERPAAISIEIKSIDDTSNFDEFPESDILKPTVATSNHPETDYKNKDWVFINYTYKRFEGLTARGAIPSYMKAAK
Sequence of MAP/microtubule affinity-regulating kinase 3 (Homo sapiens) (P27448 whole entry, looked up): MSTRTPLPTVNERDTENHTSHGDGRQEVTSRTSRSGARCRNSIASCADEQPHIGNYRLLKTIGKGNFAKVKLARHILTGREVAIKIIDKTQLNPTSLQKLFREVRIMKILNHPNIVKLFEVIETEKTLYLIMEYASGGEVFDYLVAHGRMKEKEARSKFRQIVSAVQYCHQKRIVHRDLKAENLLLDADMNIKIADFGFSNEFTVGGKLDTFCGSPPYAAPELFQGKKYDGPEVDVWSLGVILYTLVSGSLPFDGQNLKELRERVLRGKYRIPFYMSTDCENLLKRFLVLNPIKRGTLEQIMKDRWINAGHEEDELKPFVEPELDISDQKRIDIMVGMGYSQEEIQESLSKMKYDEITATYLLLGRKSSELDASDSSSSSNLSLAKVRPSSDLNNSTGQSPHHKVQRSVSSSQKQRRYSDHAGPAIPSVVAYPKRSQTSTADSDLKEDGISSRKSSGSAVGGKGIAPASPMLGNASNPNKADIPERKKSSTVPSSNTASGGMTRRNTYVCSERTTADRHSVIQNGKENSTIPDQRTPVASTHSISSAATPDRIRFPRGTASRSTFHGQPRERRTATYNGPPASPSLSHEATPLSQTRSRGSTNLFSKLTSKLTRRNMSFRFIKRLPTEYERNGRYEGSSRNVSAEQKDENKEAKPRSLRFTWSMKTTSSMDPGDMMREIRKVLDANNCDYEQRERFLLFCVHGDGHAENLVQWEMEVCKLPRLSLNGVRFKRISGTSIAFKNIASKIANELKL
Sequence of Ribosomal protein S6 kinase beta-1 (P23443 whole entry, looked up): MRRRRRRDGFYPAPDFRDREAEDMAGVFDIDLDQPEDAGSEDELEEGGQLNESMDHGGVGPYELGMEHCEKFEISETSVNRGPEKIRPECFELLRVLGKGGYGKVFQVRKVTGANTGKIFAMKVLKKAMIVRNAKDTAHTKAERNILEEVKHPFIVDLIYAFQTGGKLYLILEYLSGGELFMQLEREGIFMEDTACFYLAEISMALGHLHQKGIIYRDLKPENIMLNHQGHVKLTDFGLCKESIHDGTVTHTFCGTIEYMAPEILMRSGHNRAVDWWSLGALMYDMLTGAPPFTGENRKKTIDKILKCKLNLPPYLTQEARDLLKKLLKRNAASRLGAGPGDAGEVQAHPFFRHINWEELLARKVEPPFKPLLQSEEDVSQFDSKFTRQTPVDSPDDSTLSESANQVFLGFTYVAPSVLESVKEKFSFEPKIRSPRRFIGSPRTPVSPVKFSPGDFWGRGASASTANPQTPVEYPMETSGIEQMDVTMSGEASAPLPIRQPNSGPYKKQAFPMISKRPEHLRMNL
Sequence of Serine/threonine-protein kinase SIK3 (Homo sapiens) (Q9Y2K2 whole entry, looked up): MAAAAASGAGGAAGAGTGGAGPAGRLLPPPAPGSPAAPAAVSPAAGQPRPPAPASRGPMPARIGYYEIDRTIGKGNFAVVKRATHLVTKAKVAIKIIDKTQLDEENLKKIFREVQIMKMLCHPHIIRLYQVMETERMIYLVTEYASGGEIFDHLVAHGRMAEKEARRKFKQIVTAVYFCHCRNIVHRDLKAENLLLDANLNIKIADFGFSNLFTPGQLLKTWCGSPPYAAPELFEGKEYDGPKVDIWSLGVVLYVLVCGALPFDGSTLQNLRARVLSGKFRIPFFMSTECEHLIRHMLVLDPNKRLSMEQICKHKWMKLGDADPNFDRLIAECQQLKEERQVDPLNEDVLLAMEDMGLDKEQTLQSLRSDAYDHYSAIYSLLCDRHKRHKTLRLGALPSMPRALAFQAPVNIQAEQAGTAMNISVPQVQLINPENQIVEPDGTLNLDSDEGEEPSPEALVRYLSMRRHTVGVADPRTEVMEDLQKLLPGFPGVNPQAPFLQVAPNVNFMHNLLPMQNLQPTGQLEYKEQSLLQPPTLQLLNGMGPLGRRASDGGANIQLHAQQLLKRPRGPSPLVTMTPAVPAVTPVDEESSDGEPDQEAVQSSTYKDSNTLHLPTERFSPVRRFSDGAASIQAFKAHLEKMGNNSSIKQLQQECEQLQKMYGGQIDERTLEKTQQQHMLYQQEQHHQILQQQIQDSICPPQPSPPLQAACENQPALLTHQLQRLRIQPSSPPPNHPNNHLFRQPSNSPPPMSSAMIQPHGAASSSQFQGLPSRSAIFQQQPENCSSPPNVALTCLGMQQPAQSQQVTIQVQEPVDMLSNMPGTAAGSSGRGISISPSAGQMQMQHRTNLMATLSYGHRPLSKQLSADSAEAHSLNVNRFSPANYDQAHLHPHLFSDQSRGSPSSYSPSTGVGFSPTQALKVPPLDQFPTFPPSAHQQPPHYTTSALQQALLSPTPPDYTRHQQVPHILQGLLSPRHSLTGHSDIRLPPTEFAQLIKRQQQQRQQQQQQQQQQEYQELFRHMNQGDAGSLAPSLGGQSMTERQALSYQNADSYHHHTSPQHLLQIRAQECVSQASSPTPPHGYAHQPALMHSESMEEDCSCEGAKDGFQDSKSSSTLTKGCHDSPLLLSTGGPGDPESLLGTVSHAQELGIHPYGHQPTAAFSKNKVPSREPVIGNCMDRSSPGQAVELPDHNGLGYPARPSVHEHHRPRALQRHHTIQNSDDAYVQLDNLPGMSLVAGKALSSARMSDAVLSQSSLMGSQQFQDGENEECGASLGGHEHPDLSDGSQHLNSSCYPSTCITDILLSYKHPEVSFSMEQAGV
Sequence of Activated CDC42 kinase 1 (Q07912 whole entry): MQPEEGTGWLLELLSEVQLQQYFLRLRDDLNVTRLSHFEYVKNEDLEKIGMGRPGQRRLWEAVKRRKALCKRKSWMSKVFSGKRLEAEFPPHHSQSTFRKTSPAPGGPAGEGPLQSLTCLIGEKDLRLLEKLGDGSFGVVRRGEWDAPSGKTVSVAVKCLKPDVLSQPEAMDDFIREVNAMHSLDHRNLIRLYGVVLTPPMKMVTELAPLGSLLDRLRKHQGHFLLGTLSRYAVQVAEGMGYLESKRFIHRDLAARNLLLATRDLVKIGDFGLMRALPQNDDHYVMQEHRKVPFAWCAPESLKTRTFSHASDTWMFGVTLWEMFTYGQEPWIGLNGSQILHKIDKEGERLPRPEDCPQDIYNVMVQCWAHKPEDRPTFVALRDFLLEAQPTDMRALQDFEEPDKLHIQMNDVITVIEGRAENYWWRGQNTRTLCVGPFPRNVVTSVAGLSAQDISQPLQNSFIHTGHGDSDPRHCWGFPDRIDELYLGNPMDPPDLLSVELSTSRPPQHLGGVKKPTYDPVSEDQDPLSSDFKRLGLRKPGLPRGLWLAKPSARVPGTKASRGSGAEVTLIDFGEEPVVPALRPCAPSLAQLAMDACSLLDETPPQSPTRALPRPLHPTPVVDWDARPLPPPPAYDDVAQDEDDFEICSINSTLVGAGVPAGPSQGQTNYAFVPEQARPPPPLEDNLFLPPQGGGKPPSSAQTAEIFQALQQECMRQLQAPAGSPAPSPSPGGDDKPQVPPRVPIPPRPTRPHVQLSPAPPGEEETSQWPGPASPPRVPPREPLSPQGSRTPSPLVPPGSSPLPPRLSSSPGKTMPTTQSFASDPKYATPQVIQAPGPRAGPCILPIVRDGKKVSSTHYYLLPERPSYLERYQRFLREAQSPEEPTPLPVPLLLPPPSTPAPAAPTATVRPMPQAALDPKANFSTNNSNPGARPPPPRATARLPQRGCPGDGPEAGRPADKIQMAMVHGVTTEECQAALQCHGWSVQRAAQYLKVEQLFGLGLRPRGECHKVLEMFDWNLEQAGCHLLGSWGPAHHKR
Sequence of Casein kinase I isoform alpha (P48729 2-337 limits assumed): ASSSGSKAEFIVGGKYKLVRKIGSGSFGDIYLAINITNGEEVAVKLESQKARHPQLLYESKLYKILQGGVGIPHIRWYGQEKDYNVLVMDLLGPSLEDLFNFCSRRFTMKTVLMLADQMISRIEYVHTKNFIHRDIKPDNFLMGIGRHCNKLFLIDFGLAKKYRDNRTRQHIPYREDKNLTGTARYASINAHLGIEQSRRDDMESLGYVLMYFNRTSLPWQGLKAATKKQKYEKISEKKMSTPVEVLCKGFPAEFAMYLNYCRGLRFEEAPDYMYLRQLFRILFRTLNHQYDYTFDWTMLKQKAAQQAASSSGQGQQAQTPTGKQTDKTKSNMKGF

CNCCN1CCC(c2cc(CN(C)C(=O)c3cccc(Oc4ccccc4)c3)ccn2)CC1
% activity [1]: > 90%

Cn1cc(-n2cnc3c(NCc4nc5cc(Cl)c(Cl)cc5[nH]4)nc(N4CCOCC4)nc32)cn1
% of control [2]: 5.25%
% of control [3]: 11.8%

Cc1cc(CN)cc(C)c1-c1ncn(C)c1-c1cncn1C
dTM [4]: -0.68 K

Cc1cnc(Nc2ccc(F)cc2Cl)nc1-c1c[nH]c(C(=O)N[C@H](CO)c2cccc(Cl)c2)c1
% of inhibition [5]: 25%

COc1cc(Nc2nc(C)cc(-c3cnn4nc(OC)ccc34)n2)cc(C(F)(F)F)c1
% of control [6]: 86%
IC50 [7]: > 10 µM

CCc1cccc(CC)c1NC(=O)c1nn(C)c2c1CCc1cnc(Nc3ccc(C(=O)NC4CCN(C)CC4)cc3OC(F)(F)F)nc1-2
IC50 [8]: > 10 µM

C=CC(=O)Nc1cccc(C(=O)Nc2ccc(Nc3cc(-c4[nH]c(SC)nc4C)ccn3)cc2)c1
% of control ([9]; at 1 µM): 82%
% of control ([9]; at 5 µM): 92%

N#Cc1cccc(-c2c[nH]c3ncnc(N4CCOCC4)c23)c1
% of control [10]: 100%

CC(C)(O)[C@H](F)CN1Cc2cc(NC(=O)c3cnn4cccnc34)c(N3CCOCC3)cc2C1=O
dTM [11]: 1.3 K

CC[C@@H]1[C@H](F)C(=O)N[C@@H]1COc1nccc2cc(C(N)=O)c(OC)cc12 [ZIMLOVISERTIB]
% of inhibition [12]: 9.9%
% of inhibition ([13]; at 0.01 µM): -3.8%
% of inhibition ([13]; at 0.04 µM): 5.4%
% of inhibition ([13]; at 0.2 µM): 31.8%
% of inhibition ([13]; at 1 µM): 70.6%
% of inhibition ([13]; at 5 µM): 90%
% of inhibition [14]: -14.8%

CCN(CC)CCCCNc1ncc2cc(-c3cc(OC)cc(OC)c3)c(NC(=O)NC(C)(C)C)nc2n1
% of control [15]: 100%
